Where a name gives a salt, the structure may show the parent alone. Read-outs that look alike come from different tables or passages of the source.
Assays:
Format in all cases: biochemical
[1] = molecular target: T1, EcoLRS (leucyl-tRNA synthetase from Escherichia coli) (Escherichia coli, UniProt P07813); test: aaRS aminoacylation assay (ATP consumption), EcoLRS
T1 construct: made in house; host or cells: Escherichia coli M15
Method: (§1) The compounds have been tested for antibacterial activity in vitro as aminoacyl-tRNA synthetases (aaRS) inhibitors following the following process.
(§2) Leucyl-, valyl- and isoleucyl-tRNA synthetases (LRS, VRS and IRS, respectively) from Escherichia coli (Eco) and Staphylococcus aureus (Sau).
(§3) Escherichia coli M15 cells transformed with plasmid pQE-60, or pQE-70, containing the open-reading frame sequence of one targeted aaRS were induced with 1 mM IPTG (Isopropyl β-D-1-thiogalactopyranoside) for 3 h at 37° C. Bacterial cells were harvested and lysed with 20 mM NaH2PO4 (pH 8.0), 200 mM NaCl, 10 mM imidazole and protease inhibitor cocktail (Roche). Pathogenic aaRS was purified by nickel affinity standard chromatography. Protein concentration was determined by spectrophotometry.
(§4) tRNA^Leu, tRNA^Val and tRNA^Ile from E. coli and S. aureus were transcribed in vitro for 4 h at 37° C. using T7 RNA polymerase. Transcription reaction contained 40 mM Tris-HCl (pH 8.0), 22 mM MgCl2, 1 mM spermidine, 5 mM DTT, 0.01% Triton X-100, 4 mM GTP, 4 mM ATP, 4 mM UTP, 4 mM CTP, 16 mM GMP, […] T7 RNA polymerase and 150 μg BstNI digested plasmid. Once finished, the reaction was applied on a 6% polyacrylamide-8 M urea denaturing gel to purify the transcribed tRNA and discard any impurities. Purified tRNA was quantified with Nanodrop 2000 (Thermo Scientific).
(§5) The aminoacylation reaction catalyzed by aminoacyl-tRNA synthetases (aaRS) takes place in two steps. In the first step, aaRS activates its cognate amino acid with ATP; and in the second step the activated amino acid is loaded to its corresponding tRNA. This reaction can be summarized as follows: ARS+aa+ATP=ARS-aa-AMP+PPi ARS-aa-AMP+tRNA=aa-tRNA+AMP+ARS [2] (ARS, Aminoacyl-tRNA synthetase; aa, amino acid; ARS-aa-AMP, enzyme-bound to aminoacyl-adenylate; aa-tRNA, aminoacyl-tRNA).
(§6) The activity of the pathogenic aaRSs was monitored by measuring the ATP consumption rate, since this consumption is directly proportional to the activity of the aaRS. If the tested compound, at a single point concentration of 50 μM, is inhibiting the aminoacylation reaction, there is a decrease in the ATP consumption, compared to the control reaction without compound, allowing the calculation of an inhibition ratio.
(§7) When the inhibition ratio for a given compound was above 80%, IC50 determination was performed with the same enzymatic assay (using the commercial kit Kinase RR from BioThema AB, Sweden) in the presence of serial dilutions of inhibitor. Known inhibitors of LRS, VRS or IRS were used as a positive control of the assay. The IC50 was calculated based on nonlinear regression analysis.

[2] = molecular target: T2, EcoVRS (valyl-tRNA synthetase from Escherichia coli) (Escherichia coli, UniProt P07118); test: aaRS aminoacylation assay (ATP consumption), EcoVRS; settings: i.a. = inactive at a concentration below 50 uM
T2 construct: made in house; host or cells: Escherichia coli M15
Method: as §1, §2, §3, §4, §5, §6, §7

[3] = molecular target: T3, SauVRS (valyl-tRNA synthetase from Staphylococcus aureus) (Staphylococcus aureus, UniProt Q2FXR8); test: aaRS aminoacylation assay (ATP consumption), SauVRS; settings: i.a. = inactive at a concentration below 50 uM
T3 construct: made in house; host or cells: Escherichia coli M15
T3 sequence (Q2FXR8 1-876): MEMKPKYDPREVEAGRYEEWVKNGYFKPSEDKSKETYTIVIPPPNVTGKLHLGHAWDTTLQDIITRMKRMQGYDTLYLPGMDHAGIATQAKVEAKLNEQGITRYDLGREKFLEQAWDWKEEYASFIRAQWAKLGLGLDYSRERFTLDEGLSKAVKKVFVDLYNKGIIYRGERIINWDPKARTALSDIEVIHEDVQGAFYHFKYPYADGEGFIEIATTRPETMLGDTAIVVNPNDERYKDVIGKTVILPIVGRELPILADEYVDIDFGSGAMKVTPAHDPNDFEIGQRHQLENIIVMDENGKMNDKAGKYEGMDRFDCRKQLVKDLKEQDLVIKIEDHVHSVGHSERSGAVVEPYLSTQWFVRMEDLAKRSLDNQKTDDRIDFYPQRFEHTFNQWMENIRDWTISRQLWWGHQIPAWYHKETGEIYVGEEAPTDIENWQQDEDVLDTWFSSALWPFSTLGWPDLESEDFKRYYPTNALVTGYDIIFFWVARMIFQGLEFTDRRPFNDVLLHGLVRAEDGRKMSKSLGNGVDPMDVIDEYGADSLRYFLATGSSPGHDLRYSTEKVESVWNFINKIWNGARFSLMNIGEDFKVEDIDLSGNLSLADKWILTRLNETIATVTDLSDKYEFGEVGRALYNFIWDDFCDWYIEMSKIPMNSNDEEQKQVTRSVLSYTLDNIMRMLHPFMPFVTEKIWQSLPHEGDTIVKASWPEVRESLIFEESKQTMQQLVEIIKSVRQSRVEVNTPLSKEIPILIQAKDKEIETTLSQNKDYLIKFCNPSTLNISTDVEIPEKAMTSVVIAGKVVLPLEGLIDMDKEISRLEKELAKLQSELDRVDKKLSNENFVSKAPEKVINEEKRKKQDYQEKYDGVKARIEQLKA
Method: as §1, §2, §3, §4, §5, §6, §7

[4] = molecular target: T4, EcoIRS (isoleucyl-tRNA synthetase from Escherichia coli) (Escherichia coli, UniProt P00956); test: aaRS aminoacylation assay (ATP consumption), EcoIRS; settings: i.a. = inactive at a concentration below 50 uM
T4 construct: made in house; host or cells: Escherichia coli M15
Method: as §1, §2, §3, §4, §5, §6, §7

[5] = i.a. = inactive at a concentration below 50 uM, read-out: IC50 EcoLRS

T4 sequence (P00956 whole entry): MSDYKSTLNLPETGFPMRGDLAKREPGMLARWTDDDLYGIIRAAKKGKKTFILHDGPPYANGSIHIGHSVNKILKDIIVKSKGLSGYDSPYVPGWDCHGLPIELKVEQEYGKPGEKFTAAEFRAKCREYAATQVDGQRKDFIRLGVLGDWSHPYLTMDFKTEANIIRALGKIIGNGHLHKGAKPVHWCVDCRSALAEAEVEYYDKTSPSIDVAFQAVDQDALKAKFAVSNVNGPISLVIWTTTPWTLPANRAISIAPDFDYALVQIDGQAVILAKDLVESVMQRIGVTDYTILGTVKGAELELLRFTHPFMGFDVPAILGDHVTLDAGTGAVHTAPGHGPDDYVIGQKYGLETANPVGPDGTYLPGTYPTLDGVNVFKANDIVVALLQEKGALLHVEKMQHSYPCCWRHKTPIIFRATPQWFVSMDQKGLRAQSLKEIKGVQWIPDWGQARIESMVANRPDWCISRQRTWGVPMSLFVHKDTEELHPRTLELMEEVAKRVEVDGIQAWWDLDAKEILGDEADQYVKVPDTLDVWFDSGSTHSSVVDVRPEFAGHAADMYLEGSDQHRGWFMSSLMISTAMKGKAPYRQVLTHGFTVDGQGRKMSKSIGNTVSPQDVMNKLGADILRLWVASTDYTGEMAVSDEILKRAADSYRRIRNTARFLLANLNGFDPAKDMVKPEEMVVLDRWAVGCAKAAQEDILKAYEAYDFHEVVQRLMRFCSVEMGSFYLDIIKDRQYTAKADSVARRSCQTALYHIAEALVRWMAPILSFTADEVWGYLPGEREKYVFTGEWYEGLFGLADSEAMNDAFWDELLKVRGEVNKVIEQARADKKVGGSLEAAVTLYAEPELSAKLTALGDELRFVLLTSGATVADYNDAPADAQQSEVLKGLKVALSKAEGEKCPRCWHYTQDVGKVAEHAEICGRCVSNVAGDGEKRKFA
T2 sequence (P07118 whole entry): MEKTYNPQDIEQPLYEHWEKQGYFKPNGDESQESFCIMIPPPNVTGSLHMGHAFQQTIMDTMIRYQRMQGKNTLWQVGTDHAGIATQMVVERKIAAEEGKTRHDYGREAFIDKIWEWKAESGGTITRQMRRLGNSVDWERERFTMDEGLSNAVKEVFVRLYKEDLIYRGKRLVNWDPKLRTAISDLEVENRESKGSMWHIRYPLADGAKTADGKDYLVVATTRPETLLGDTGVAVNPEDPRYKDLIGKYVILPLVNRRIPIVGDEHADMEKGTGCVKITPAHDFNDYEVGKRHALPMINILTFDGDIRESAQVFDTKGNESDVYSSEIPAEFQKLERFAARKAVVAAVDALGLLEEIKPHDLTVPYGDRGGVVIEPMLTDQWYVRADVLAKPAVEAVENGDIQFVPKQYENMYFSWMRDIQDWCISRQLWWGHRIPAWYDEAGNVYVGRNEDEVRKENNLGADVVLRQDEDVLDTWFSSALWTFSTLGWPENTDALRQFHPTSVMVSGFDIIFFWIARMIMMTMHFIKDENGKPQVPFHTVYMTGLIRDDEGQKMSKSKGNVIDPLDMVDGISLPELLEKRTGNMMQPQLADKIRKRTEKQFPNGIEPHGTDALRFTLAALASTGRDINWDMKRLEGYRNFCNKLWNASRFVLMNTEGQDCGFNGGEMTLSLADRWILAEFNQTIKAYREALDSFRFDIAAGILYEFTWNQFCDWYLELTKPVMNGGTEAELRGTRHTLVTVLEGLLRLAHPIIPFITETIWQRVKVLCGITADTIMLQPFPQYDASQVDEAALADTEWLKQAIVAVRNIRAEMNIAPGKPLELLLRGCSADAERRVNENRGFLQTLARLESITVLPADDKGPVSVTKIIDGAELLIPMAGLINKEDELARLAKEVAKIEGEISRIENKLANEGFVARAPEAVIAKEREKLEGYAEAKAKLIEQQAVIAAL
T1 sequence (P07813 whole entry): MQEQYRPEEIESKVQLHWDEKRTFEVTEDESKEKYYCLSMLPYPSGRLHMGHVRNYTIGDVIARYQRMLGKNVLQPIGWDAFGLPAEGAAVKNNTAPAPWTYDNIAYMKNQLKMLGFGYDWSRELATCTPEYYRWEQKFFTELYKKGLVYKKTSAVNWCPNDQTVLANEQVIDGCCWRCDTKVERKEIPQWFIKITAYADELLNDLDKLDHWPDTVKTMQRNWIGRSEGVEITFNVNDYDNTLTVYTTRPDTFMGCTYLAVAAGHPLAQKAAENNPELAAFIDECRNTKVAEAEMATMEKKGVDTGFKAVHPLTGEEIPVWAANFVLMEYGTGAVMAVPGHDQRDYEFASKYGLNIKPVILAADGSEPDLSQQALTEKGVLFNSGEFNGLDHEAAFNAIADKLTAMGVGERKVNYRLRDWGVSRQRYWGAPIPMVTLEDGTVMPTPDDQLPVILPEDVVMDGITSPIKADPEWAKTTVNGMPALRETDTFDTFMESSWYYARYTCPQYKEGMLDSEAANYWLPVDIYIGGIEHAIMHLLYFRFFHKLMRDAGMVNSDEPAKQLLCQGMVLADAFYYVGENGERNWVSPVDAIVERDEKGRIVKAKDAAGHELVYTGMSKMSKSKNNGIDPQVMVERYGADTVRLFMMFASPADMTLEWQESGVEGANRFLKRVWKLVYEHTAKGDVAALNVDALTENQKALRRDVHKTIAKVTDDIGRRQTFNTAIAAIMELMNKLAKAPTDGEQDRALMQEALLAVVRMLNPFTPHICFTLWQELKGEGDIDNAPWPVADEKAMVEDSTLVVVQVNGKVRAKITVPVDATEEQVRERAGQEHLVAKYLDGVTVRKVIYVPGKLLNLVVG

SMILES	IC50 [1] [nM]	IC50 EcoVRS [2]	IC50 SauVRS [3]	IC50 EcoIRS [4]	% at single point concentration (inhibition ratio), EcoLRS ([1]; @50 μM compound) [%@50]	IC50 EcoLRS ([1]; i.a. = inactive at a concentration below 50 uM)	IC50 [1, 5] [nM]
COc1cc(-c2cccc(S(=O)(=O)NC(=O)[C@@H](N)CC(C)C)c2)nc(N)n1 [Compound 5.36]	12	i.a.	i.a.				
CC(C)C[C@H](N)C(=O)NS(=O)(=O)c1cccc2c1CNCC2 [Compound 5.26, (S)-2-amino-4-methyl-N-((1,2,3,4-tetrahydroisoquinolin-8-yl)sulfonyl) pentanamide trifluoroacetate]	176	i.a	i.a	i.a			
Cc1cc(-c2cccc(S(=O)(=O)NC(=O)[C@@H](N)C3CC3)c2)nc(N)n1 [Compound 5.33]		i.a	i.a	i.a	40		
CC(C)C[C@H](N)C(=O)NS(=O)(=O)c1cccc2c1OCCC2 [Compound 5.25]	149	i.a	i.a	i.a			
Cc1cc(-c2cccc(S(=O)(=O)NC(=O)[C@@H](N)CC3CCCCC3)c2)nc(N)n1 [Compound 5.34]		i.a	i.a	i.a		i.a	
Cc1cc(-c2cccc(S(=O)(=O)NC(=O)[C@@H](N)CC3CCC3)c2)nc(N)n1 [Compound 5.31]	6200	i.a	i.a	i.a			
CC(C)C[C@H](N)C(=O)NS(=O)(=O)c1ccccc1F [Compound 5.6]	233	i.a	i.a	i.a			
CC(C)C[C@H](N)C(=O)NS(=O)(=O)c1cccc(Cl)c1 [Compound 5.4]	31	i.a	i.a	i.a			
CC(C)C[C@H](N)C(=O)NS(=O)(=O)c1cccc2ccccc12 [Compound 5.13]	59	i.a	i.a	i.a			
COc1ccc2cc(S(=O)(=O)NC(=O)[C@@H](N)CC(C)C)ccc2c1 [Compound 5.17]	920	i.a	i.a	i.a			
CC(C)C[C@H](N)C(=O)NS(=O)(=O)c1cccc(-c2cc(N)nc(N)n2)c1 [Compound 5.45]	20	i.a.	i.a.				
CC[C@H](C)[C@H](N)C(=O)NS(=O)(=O)c1cccc(-c2cc(C)nc(N)n2)c1 [Compound 5.40]	21800	i.a.	i.a.				
CC(C)C[C@H](N)C(=O)NS(=O)(=O)c1cccc2c(N(C)C)cccc12 [Compound 5.16, (S)-2-amino-N-((5-(dimethylamino)naphthalen-1-yl)sulfonyl)-4-methylpentanamide hydrochloride]	4100	i.a	i.a	i.a			
CC(C)C[C@H](N)C(=O)NS(=O)(=O)c1ccccc1 [Compound 5.1, (S)-2-amino-4-methyl-N-(phenylsulfonyl)pentanamide hydrochloride]		i.a.	i.a.	i.a.			35
CC(C)C[C@H](N)C(=O)NS(=O)(=O)c1cccc(-c2ccnc(N)c2)c1 [Compound 5.43]	2	i.a.	i.a.				
CC(C)C[C@H](N)C(=O)NS(=O)(=O)c1ccc2ccccc2c1 [Compound 5.14]		i.a	i.a	i.a			65
CC(C)C[C@H](N)C(=O)NS(=O)(=O)c1cccc(-c2ccccc2)c1 [Compound 5.9]		i.a	i.a	i.a			32
CC(C)C[C@H](N)C(=O)NS(=O)(=O)c1cccc(-c2ccnc(N)n2)c1 [Compound 5.37]		i.a.	i.a.				54
CC(C)C[C@H](N)C(=O)NS(=O)(=O)c1cccc(-c2nc(N)nc3nc[nH]c23)c1 [Compound 5.38]	84	i.a.	i.a.				
CC(C)C[C@H](N)C(=O)NS(=O)(=O)c1cccc(-c2ccnc(O)n2)c1 [Compound 5.50]	63	i.a.	i.a.				
CCc1cc(-c2cccc(S(=O)(=O)NC(=O)[C@@H](N)CC(C)C)c2)nc(N)n1 [Compound 5.47]	11	i.a.	i.a.				
CC(C)C[C@H](N)C(=O)NS(=O)(=O)c1cccc(-c2ncnc(N)n2)c1 [Compound 5.48]	3.4	i.a.	i.a.				
CC(C)C[C@H](N)C(=O)NS(=O)(=O)c1cccc(-c2cc(-c3ccccc3)nc(N)n2)c1 [Compound 5.41]	220	i.a.	i.a.				
CC(C)C[C@H](N)C(=O)NS(=O)(=O)c1cccc(-c2ccnc(Cl)n2)c1 [Compound 5.49]	64	i.a.	i.a.				
CC(C)C[C@H](N)C(=O)NS(=O)(=O)c1cccc(-c2cccc(N)n2)c1 [Compound 5.44]	6	i.a.	i.a.				
CC(C)C[C@H](N)C(=O)NS(=O)(=O)c1cccc(-c2cc(N)ncn2)c1 [Compound 5.46]	10	i.a.	i.a.				
CC(C)C[C@H](N)C(=O)NS(=O)(=O)c1cccc(-c2ccncc2)c1 [Compound 5.42]		i.a.	i.a.				13
Cc1cc(-c2cccc(S(=O)(=O)NC(=O)[C@@H](N)CC(C)C)c2)ncn1 [Compound 5.39]	45	i.a.	i.a.				
Cc1cc(-c2cccc(S(=O)(=O)NC(=O)[C@@H](N)CC(C)C)c2)nc(N)n1 [Compound 5.35, (S)-2-amino-N-((3-(2-amino-6-methylpyrimidin-4-yl)phenyl)sulfonyl)-4-methylpentanamide]	14	i.a.	i.a.				

— patent US11072581B2, “N-acyl-arylsulfonamide derivatives as aminoacyl-tRNA synthetase inhibitors” (Oxford Drug Design Limited, priority 2015, dated 2021)
